The values that follow come from ChEMBL document CHEMBL1145498, “A systematic interaction map of validated kinase inhibitors with Ser/Thr kinases” (Proc Natl Acad Sci U S A, 2007).

≈ marks a conversion by molar mass, not a printed value.

Test [1] concerns the target Tyrosine-protein kinase ITK/TSK (Homo sapiens, UniProt Q08881). Briefly: Inhibition of Itk.
For the next test, the system named is RBL-2H3. In words: Inhibition of FcepsilonRI-mediated 5-HT release in rat RBL2H3 cells. Type of test: functional, cell-based.
Test [2] deals with Tyrosine-protein kinase SYK (Homo sapiens, UniProt P43405).
The target of test [3] is T1, Insulin-like growth factor 1 receptor (Homo sapiens, UniProt P08069). Briefly: Inhibition of IGF1R autophosphorylation in human MCF7 cells. The test is classed as cell-based.
In test [4] the target is Eukaryotic elongation factor 2 kinase (Homo sapiens, UniProt O00418). In words: Inhibition of eEF2 kinase.
Another test has as its system HepG2. Briefly: Antitumor activity against human HepG2 cells. The test is classed as functional, cell-based.
Test [5] concerns the target Nitric oxide synthase, inducible (Homo sapiens, UniProt P35228). Briefly: Inhibition of nitric oxide synthase in […]. Type of test: cell-based.
The subject of test [6] is PBMC. Briefly: Inhibition of IL1 release in human PBMC. Type of test: functional, cell-based.
The test system of a further test is Blood. In words: Inhibition of TNFalpha release in human whole blood. The test is classed as functional, tissue-based.
The nature of test [7]: Inhibition of TNFalpha release in human peripheral blood mononuclear cells. The test is classed as functional.
For test [8], the target named is T1, Insulin-like growth factor 1 receptor. Briefly: Inhibition of IGF1R.
Test [9] deals with Tyrosine-protein kinase Lck (Homo sapiens, UniProt P06239).
The next test can be described thus: cells. The following applies: Homo sapiens, Granta-519, 72 h.
In test [10] the target is Tyrosine-protein kinase Lyn (Homo sapiens, UniProt P07948). In words: Inhibition of Lyn kinase.
Test [11] has as its target Tyrosine-protein kinase Fyn (Homo sapiens, UniProt P06241). In words: Inhibition of Fyn.
Test [12] has as its target Tyrosine-protein kinase Yes (Homo sapiens, UniProt P07947). In words: Inhibition of Yes kinase.
For test [13], the target named is Proto-oncogene tyrosine-protein kinase Src (Homo sapiens, UniProt P12931). In words: Inhibition of c-Src.
Test [14] addresses Calcium/calmodulin-dependent protein kinase kinase 2 (Homo sapiens, UniProt Q96RR4). Briefly: Inhibition of CaM-KKbeta.
Test [15] in a line: Inhibition of Aurora kinase B.
Another test addresses Aurora kinase A (Homo sapiens, UniProt O14965). Briefly: Inhibition of Aurora kinase A.
A further test addresses Aurora kinase B (Homo sapiens, UniProt Q96GD4). In words: Inhibition of Aurora kinase B in MCF7 cells. The test is classed as cell-based.
Test [16] addresses Vascular endothelial growth factor receptor 3 (Homo sapiens, UniProt P35916). In words: Inhibition of VEGFR3.
In test [17] the target is Vascular endothelial growth factor receptor 2 (Homo sapiens, UniProt P35968).
The target of test [18] is Serine-protein kinase ATM (Homo sapiens, UniProt Q13315). In words: Inhibition of ATM.
The target in test [19] is Serine/threonine-protein kinase ATR (Homo sapiens, UniProt Q13535). In words: Inhibition of ATR.
For test [20], the target named is Serine/threonine-protein kinase pim-2 (Homo sapiens, UniProt Q9P1W9). Briefly: Inhibition of PIM2 expressed in Escherichia coli by thermal shift assay.
Another test deals with MV4-11. Briefly: Induction of apoptosis in human MV4-11 cells. Type of test: functional, cell-based.
Test [21] addresses Tyrosine-protein kinase ABL1 (Homo sapiens, UniProt P00519). Briefly: Inhibition of Abl.
Test [22] deals with Epidermal growth factor receptor (Homo sapiens, UniProt P00533, L858R). Briefly: Inhibition of EGFR L858R mutant. Type of test: protein assay.
The target of test [23] is Receptor tyrosine-protein kinase erbB-4 (Homo sapiens, UniProt Q15303). Briefly: Inhibition of erbB4/Her4.
In test [24] the target is Rho-associated protein kinase 2 (Homo sapiens, UniProt O75116). Briefly: Inhibition of ROCK2.
Test [25] concerns the target Dual specificity tyrosine-phosphorylation-regulated kinase 1A (Homo sapiens, UniProt Q13627). Briefly: Inhibition of DYRK1a.
Test [26] can be described thus: Inhibition of phosphorylase kinase.
The subject of a further test is KM12. In words: Inhibition of human KM12 cells. Type of test: functional.
The target in test [27] is Dual specificity protein kinase CLK3 (Mus musculus, UniProt O35492). In words: Inhibition of mouse Clk3.
The nature of test [28]: Inhibition of MKK3/p38.
Test [29] concerns the target Mitogen-activated protein kinase 14 (Homo sapiens, UniProt Q16539). Briefly: Inhibition of SAPK2a/p38-alpha.
Test [30] addresses Dual specificity mitogen-activated protein kinase kinase 1 (Homo sapiens, UniProt Q02750). In words: Inhibition of MKK1.
The nature of test [31]: Inhibition of Pho85p.
The nature of test [32]: Inhibition of Cdc28p.
A short description of test [33]: Antitumor activity in human Col1 cells. Type of test: functional, cell-based.
The test system of test [34] is PBMC. In words: Inhibition of LPS-stimulated IL1 release in human PBMC. Type of test: functional, cell-based.
The subject of test [35] is PBMC. Briefly: Inhibition of LPS-stimulated TNFalpha release in human PBMC. Type of test: functional, cell-based.
For a further test, the system named is P19. Briefly: Induction of differentiation in mouse P19 cells at 1000 nM. The test is classed as functional.
The nature of test [36]: Induction of differentiation in mouse D3 cells at 400 nM. Type of test: functional.
Test [37] in a line: Inhibition of serum-induced proliferation in human NHLF cells. The test is classed as functional, cell-based.
Test [38] concerns the target Platelet-derived growth factor receptor beta (Homo sapiens, UniProt P09619). In words: Inhibition of bPDGFR in human PAC1 cells. The test is classed as cell-based.
Test [39] concerns the target Platelet-derived growth factor receptor (Homo sapiens, UniProt P09619+P16234). In words: Inhibition of PDGF. Type of test: protein-complex assay.
In another test the test system is T-cell. In words: Effect of gamma irradiation-induced apoptosis in human CD8+ T cells. The conditions noted are these: light or radiation study. Type of test: functional, cell-based.
The target in test [40] is Protein kinase C gamma type (Homo sapiens, UniProt P05129). Briefly: Inhibition of PKCgamma.
Test [41] is described as follows: Inhibition of diacylglycerol kinase in intact platelets.
The nature of test [42]: Inhibition of Cdk6/cyclin D1.
Test [43] deals with T2, Serine/threonine-protein kinase Chk1 (Homo sapiens, UniProt O14757).
T2 sequence (O14757 whole entry): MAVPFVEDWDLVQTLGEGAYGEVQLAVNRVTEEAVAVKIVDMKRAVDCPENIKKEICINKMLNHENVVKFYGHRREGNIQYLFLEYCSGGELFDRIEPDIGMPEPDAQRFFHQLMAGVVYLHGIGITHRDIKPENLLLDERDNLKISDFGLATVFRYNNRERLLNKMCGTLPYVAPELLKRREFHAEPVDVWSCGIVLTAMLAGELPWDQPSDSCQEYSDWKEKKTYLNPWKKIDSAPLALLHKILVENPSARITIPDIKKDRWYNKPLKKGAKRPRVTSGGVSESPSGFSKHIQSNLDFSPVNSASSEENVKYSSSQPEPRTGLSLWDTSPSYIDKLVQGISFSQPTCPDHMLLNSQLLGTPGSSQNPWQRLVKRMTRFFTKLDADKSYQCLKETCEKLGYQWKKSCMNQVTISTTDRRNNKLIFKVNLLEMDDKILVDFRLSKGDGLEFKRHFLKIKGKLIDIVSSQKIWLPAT
Briefly: Inhibition of Chk1 mediated phosphorylation of cdc25C.

T1 sequence (P08069 31-736 limits assumed): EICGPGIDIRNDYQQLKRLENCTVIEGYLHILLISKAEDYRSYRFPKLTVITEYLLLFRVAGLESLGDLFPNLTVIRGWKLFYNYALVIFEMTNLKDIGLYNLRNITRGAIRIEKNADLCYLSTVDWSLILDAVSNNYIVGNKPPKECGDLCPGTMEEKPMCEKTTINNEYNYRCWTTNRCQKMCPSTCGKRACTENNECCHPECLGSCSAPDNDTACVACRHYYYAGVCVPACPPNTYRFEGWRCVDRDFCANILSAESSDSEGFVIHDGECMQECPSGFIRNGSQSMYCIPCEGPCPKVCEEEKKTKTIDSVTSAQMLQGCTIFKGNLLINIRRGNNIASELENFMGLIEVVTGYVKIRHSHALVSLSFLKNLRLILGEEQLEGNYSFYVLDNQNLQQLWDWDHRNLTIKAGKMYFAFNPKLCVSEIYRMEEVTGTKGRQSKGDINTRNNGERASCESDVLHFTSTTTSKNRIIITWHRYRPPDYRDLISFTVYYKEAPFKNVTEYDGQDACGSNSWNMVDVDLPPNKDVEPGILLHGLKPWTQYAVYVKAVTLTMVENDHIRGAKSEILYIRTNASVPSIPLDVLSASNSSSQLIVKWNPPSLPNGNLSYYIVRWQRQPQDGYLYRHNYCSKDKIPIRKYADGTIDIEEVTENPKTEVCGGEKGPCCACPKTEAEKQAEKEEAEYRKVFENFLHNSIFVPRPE
T1 sequence (P08069 741-1367 limits assumed): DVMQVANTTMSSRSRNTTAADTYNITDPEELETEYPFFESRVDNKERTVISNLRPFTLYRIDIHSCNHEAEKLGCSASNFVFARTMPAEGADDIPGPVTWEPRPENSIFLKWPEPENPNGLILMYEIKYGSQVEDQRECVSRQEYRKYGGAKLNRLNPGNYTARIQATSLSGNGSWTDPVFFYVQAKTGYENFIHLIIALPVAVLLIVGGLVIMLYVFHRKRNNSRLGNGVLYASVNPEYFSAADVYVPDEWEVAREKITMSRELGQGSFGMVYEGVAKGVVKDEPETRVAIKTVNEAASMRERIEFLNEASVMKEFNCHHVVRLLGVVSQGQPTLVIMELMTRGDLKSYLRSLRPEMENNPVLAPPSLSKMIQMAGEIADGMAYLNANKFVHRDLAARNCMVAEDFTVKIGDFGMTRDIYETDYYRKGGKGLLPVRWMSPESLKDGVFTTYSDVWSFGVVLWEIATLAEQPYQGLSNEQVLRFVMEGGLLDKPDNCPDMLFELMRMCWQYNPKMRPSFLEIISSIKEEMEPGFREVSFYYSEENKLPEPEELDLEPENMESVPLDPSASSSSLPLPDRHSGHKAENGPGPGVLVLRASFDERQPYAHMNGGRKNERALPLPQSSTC
Serine/threonine-protein kinase pim-2, sequence (Q9P1W9 whole entry): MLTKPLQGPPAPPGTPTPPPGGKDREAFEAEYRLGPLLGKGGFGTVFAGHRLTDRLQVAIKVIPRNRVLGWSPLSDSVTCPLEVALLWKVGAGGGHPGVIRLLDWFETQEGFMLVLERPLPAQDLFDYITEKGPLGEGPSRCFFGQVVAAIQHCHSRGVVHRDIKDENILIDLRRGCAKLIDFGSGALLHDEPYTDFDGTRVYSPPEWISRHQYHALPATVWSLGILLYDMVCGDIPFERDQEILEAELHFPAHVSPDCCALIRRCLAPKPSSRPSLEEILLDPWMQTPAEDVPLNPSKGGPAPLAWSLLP
Serine/threonine-protein kinase ATR, sequence (Q13535 whole entry): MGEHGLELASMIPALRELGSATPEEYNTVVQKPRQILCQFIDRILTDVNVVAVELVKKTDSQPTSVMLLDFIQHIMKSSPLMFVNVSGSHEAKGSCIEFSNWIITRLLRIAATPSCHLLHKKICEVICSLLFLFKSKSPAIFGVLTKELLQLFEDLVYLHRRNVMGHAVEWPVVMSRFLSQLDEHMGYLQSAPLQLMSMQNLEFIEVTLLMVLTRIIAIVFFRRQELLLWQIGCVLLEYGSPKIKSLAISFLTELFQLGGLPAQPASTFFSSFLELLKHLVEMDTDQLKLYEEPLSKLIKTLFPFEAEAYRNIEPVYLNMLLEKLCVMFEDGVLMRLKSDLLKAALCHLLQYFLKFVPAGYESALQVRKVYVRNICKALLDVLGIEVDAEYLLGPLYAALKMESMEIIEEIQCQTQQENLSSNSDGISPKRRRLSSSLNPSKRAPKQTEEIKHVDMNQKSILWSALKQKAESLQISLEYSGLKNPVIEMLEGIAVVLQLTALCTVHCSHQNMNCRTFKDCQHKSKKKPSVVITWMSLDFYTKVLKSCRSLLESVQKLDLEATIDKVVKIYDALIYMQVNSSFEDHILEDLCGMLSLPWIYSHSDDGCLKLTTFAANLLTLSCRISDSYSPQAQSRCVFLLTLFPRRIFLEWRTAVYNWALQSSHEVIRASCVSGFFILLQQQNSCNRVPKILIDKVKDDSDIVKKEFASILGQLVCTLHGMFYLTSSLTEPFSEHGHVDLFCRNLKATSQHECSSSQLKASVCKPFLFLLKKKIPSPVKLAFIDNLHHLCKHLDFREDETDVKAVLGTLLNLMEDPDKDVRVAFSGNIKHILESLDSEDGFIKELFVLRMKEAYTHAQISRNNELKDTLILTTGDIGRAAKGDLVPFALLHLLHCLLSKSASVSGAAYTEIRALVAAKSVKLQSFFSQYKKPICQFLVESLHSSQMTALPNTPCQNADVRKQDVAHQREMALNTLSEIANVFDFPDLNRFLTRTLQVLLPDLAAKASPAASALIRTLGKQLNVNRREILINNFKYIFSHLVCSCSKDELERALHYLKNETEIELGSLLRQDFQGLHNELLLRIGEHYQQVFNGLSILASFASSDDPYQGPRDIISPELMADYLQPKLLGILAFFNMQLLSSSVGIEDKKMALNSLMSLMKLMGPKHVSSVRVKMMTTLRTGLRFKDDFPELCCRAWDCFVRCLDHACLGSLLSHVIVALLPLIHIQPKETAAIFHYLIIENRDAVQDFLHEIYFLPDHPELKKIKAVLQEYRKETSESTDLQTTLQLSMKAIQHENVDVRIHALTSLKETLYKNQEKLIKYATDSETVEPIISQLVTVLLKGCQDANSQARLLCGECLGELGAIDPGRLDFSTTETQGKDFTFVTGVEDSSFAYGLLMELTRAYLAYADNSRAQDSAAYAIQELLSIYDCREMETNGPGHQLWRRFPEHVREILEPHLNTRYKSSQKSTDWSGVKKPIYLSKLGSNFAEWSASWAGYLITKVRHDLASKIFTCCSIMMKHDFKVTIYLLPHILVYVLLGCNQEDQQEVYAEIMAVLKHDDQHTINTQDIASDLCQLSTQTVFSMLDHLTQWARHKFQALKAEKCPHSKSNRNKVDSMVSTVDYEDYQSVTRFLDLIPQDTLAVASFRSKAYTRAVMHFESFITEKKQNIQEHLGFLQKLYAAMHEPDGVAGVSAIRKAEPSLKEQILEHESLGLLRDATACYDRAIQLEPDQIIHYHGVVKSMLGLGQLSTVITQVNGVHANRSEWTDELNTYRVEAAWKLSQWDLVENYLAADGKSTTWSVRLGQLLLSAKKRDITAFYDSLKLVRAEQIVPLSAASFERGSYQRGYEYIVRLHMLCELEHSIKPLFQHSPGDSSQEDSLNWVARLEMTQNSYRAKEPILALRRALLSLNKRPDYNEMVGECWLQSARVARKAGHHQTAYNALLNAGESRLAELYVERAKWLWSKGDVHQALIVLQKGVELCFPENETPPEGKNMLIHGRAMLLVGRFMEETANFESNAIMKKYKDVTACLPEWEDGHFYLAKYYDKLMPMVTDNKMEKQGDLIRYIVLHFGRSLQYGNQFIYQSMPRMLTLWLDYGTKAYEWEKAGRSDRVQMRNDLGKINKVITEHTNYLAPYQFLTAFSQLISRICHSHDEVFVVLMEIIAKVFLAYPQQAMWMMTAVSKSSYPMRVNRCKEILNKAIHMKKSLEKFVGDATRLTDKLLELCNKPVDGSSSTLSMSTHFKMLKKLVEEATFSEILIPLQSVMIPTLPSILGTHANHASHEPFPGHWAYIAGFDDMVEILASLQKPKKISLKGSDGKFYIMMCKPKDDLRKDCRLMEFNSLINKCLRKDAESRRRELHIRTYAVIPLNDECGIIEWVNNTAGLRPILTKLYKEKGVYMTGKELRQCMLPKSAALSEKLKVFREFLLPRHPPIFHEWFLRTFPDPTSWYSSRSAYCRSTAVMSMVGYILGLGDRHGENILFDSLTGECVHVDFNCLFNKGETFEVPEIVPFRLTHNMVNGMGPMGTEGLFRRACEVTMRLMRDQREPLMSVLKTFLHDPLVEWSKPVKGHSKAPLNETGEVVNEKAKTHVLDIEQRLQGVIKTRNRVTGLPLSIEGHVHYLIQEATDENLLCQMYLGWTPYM
Proto-oncogene tyrosine-protein kinase Src, sequence (P12931 2-536 limits assumed): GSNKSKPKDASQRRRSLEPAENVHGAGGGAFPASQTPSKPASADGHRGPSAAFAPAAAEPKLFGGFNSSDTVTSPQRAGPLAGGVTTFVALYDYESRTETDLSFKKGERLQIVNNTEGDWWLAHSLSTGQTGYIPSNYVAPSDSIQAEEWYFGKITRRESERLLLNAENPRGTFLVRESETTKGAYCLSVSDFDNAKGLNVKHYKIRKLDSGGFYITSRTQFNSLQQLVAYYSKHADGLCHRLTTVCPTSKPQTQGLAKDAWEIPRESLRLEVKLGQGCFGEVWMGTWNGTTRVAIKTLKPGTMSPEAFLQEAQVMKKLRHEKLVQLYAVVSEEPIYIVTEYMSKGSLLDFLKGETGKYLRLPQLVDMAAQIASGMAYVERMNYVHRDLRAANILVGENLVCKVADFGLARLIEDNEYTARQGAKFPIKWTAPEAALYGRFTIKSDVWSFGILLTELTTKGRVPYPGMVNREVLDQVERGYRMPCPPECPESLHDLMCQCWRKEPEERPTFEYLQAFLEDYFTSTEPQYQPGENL

For `NCCNc1ncc(C(N)=O)c(Nc2cccc(C(F)(F)F)c2)n1`, the IC50 (commonly the concentration needed to halve the response being measured) in [1] came out at 22600 nM; in the test on RBL-2H3 it was 460 nM; in test [2], 41 nM.

`COc1ccc(Cl)cc1NC(=O)Nc1cc(C)nc2ccccc12`: the IC50 in test [3] was determined as 12000 nM.

For `Cc1cc(C=C2C(=O)C=CC2=O)cc(C)c1O`, the IC50 in [4] worked out at 440 nM. In the test on HepG2, the EC50 (as a rule, the concentration needed to bring the measured effect to its halfway point) stood at 2070 nM.

`COc1cc(/C=C/C(=O)CC(=O)/C=C/c2ccc(O)c(OC)c2)ccc1O` [CURCUMIN] showed an IC50 in test [5] of 6000 nM.

As to `C[S+]([O-])c1ccc(CSc2nc(-c3ccc(F)cc3)c(-c3ccncc3)[nH]2)cc1` (stereo not drawn), the 50% inhibitory concentration (IC50) stood at 880 nM in the test with PBMC [6], 3650 nM in the test on Blood and 3650 nM in test [7].

With `O=C(Nc1cccc(Nc2nccc(Nc3cccc(C(F)(F)F)c3)n2)c1)C1CC1` [ANILINOPYRIMIDINE1], the IC50 stood at 591 nM in test [8] and 131 nM in test [9].

`CC[C@H](CO)Nc1nc(NCc2ccccc2)c2ncn(C(C)C)c2n1` [SELICICLIB] gave an IC50 in the test “cells” of 25000 nM.

Take `CN(C)S(=O)(=O)c1ccc2c(c1)/C(=C/c1cc3c([nH]1)CCCC3)C(=O)N2`: the half-maximal inhibitory concentration (IC50) stood at 130 nM in test [10], 170 nM in test [11], 20 nM in test [12] and 688000 nM in test [13].

Take `N=C(N)NCCNS(=O)(=O)c1cccc2cnccc12`: the Ki (commonly the equilibrium dissociation constant of an inhibitor or competing ligand from its target) in [14] is 13000 nM.

For `COc1cc2ncnc(Nc3ccc(NC(=O)c4ccccc4)cc3)c2cc1OC` [ANILINOQUINAZOLINE1], the IC50 in test [15] was 240 nM; on Aurora kinase A it was 310 nM; at Aurora kinase B, 1250 nM.

As for `N#CCCc1ccc2c(c1)-c1[nH]c3ccc([N+](=O)[O-])cc3c1CC(=O)N2` [ALSTERPAULLONE 2], the IC50 in test [16] and in test [17] was 1000 nM throughout.

In the case of `O=c1cc(N2CCOCC2)oc2c1ccc1ccccc12`, the IC50 in test [18] and in test [19] was greater than 100000 nM throughout.

Turning to `CN(C)C[C@@H]1CCn2cc(c3ccccc32)C2=C(C(=O)NC2=O)c2cn(c3ccccc23)CCO1` [RUBOXISTAURIN], the values for the half-inhibitory concentration (IC50) (in [20]; in the test with MV4-11) were greater than 20000 nM and 1500 nM, respectively.

`c1ccc(-c2n[nH]c3c2oc2ccccc23)cc1`: the IC50 in test [21] is no less than 10000 nM.

As to `O=C(Nc1cccc(Nc2cc(Nc3cccc(C(F)(F)F)c3)ncn2)c1)C1CC1`, the figures for the IC50 in [22] and in test [23] were 63 nM and 7640 nM, respectively.

Take `NS(=O)(=O)c1ccc(Nc2nc(OCC3CCCCC3)c3nc[nH]c3n2)cc1`: the figures for the IC50 in test [24] and in test [25] were 600 nM and 900 nM, respectively.

The compound `Cl.Cn1cc(C2=C(c3ccc4cc5n(c4c3)CCC(CN)C5)C(=O)NC2=O)c2ccccc21` (stereo not drawn) had an IC50 in [26] of 1300 nM.

For `CC(C)[C@H](CO)Nc1nc(Nc2cc(N)cc(Cl)c2)c2ncn(C(C)C)c2n1` [AMINOPURVALANOL], the GI50 (as a rule, the concentration giving 50% growth inhibition) in the test on KM12 was determined as 30 nM.

`CCN1/C(=C/C(C)=O)Sc2ccc(OC)cc21` yielded a half-maximal inhibitory concentration (IC50) in [27] greater than 10000 nM.

`N#C/C(=C(/N)Sc1ccc(N)cc1)c1ccccc1C(F)(F)F` had an IC50 in [28] greater than 10000 nM.

Compound `Cc1ccc(NC(=O)c2cccc(N(C)C)c2)cc1NC(=O)c1ccc(O)cc1` returned an IC50 in [29] of 2000 nM.

Take `COc1cc(C[C@H]2C(=O)OC[C@@H]2Cc2ccc(OC)c(OC)c2)ccc1O` [ARCTIGENIN]: in test [30], the IC50 worked out at 1 nM.

For `CC(C)n1cnc2/c(=N/c3cccc(Cl)c3)nc(NCCO)[nH]c21`, the IC50 in [31] came to 2000 nM; in [32], 7000 nM.

`Cc1ccc(NC2=CC(=O)c3sc(C)nc3C2=O)cc1` had an IC50 in [33] of 1080 µg/mL (≈ 3.8 mM).

`CSc1nc(-c2ccc(F)cc2)c(-c2ccnc(NC(C)c3ccccc3)c2)[nH]1` (racemic): the IC50 was found to be 39 nM in the test on PBMC [34] and 160 nM in the test on PBMC [35].

As to `Nc1cccc(-c2cc3c(Oc4cccc(O)c4)ncnc3[nH]2)c1`, the Activity with P19 came out at 30%; in test [36] it was 50%.

`CN1CCc2[nH]c(=S)c(C#N)c(-c3cccs3)c2C1` came in with an IC50 in test [37] of less than 8000 nM.

With `CCOC(=O)c1c(C)[nH]c(/C=C2\C(=O)Nc3ccccc32)c1C`, the figures for the IC50 in [38] and in test [39] were 4000 nM and greater than 100000 nM, respectively.

As for `NC(=O)c1ccc2[nH]c(-c3ccc(Oc4ccc(Cl)cc4)cc3)nc2c1`, the midpoint of the response with T-cell, the EC50, lay at 7600 nM.

`O=C1NC(=O)C(c2cn(CCCn3ccnc3)c3ccccc23)=C1Nc1ccccc1`: in test [40], the IC50 was greater than 1000 nM.

Consider `O=c1c2ccccc2[nH]c(=S)n1CCN1CCC(=C(c2ccc(F)cc2)c2ccc(F)cc2)CC1` [DIACYLGLYCEROL KINASE INHIBITOR II], for which half-maximal inhibition in test [41] (IC50) required 120 nM.

In turn, `O=C1c2ccccc2-[n+]2ccc3c([nH]c4ccccc43)c21` [FASCAPLYSIN CHLORIDE] gave an IC50 in test [42] of 3400 nM.

In the case of `O=C1NC(=O)c2c1c1c3ccccc3n3c1c1c2c2ccccc2n1C1CCC3O1`, in test [43], the IC50 amounted to 15 nM.
